Experimental data reported in PubChem BioAssay AID256 (DTP/NCI, 2004).
Inconclusive results and toxic doses are left out.

System: CD2F1 mice, L1210 leukemia ip, survival T/C
Experiment: NCI In Vivo Anticancer Drug Screen. Data for tumor model L1210 Leukemia (intraperitoneal) in CD2F1 (CDF1) mice
Details: higher = longer survival
How it was run: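 Activity against a transplanted murine tumor was judged by comparing the compound group with a vehicle group. The outcome in the treated animals was divided by that in the controls.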

[1] = endpoint: mean survival time, dose: 25.0 mg/kg/injection, schedule: Q01DX009 (ip), vehicle: saline
[2] = endpoint: mean survival time, dose: 50.0 mg/kg/injection, schedule: Q01DX009 (ip), vehicle: saline
[3] = endpoint: mean survival time, dose: 50.0 mg/kg/injection, schedule: Q01DX009 (ip), vehicle: saline with Tween-80
[4] = endpoint: mean survival time, dose: 100.0 mg/kg/injection, schedule: Q01DX009 (ip), vehicle: saline with Tween-80
[5] = endpoint: mean survival time, dose: 200.0 mg/kg/injection, schedule: Q01DX009 (ip), vehicle: saline with Tween-80
[6] = endpoint: mean survival time, dose: 100.0 mg/kg/injection, schedule: Q04DX003 (ip), vehicle: saline with Tween-80
[7] = endpoint: mean survival time, dose: 200.0 mg/kg/injection, schedule: Q04DX003 (ip), vehicle: saline with Tween-80
[8] = endpoint: mean survival time, dose: 400.0 mg/kg/injection, schedule: Q04DX003 (ip), vehicle: saline with Tween-80
[9] = endpoint: mean survival time, dose: 100.0 mg/kg/injection, schedule: Q01DX001 (ip), vehicle: saline with Tween-80
[10] = endpoint: mean survival time, dose: 200.0 mg/kg/injection, schedule: Q01DX001 (ip), vehicle: saline with Tween-80
[11] = endpoint: mean survival time, dose: 400.0 mg/kg/injection, schedule: Q01DX009 (ip), vehicle: saline with Tween-80
[12] = endpoint: mean survival time, dose: 100.0 mg/kg/injection, schedule: Q01DX009 (ip), vehicle: saline
[13] = endpoint: mean survival time, dose: 100.0 mg/kg/injection, schedule: Q04DX002 (ip), vehicle: saline with Tween-80
[14] = endpoint: mean survival time, dose: 200.0 mg/kg/injection, schedule: Q04DX002 (ip), vehicle: saline with Tween-80
[15] = endpoint: mean survival time, dose: 400.0 mg/kg/injection, schedule: Q04DX002 (ip), vehicle: saline with Tween-80
[16] = endpoint: mean survival time, dose: 25.0 mg/kg/injection, schedule: Q04DX003 (ip), vehicle: saline with Tween-80
[17] = endpoint: mean survival time, dose: 50.0 mg/kg/injection, schedule: Q04DX003 (ip), vehicle: saline with Tween-80

In the case of `OC1CCC2=C(C1)C1CCC2C1` (stereo not given), the T/C (endpoint: mean survival time, dose: 12.5 mg/kg/injection, schedule: Q01DX009 (ip), vehicle: saline) is reported as 98 % of control, the T/C [1] is reported as 103 % of control and the T/C [2] is reported as 97 % of control.
With `COc1c(OC(C)=O)ccc2c1C=CCCC2=O` the T/C [3] was 96 % of control, the T/C [4] was 100 % of control and the T/C [5] was 92 % of control.
With `CC(=O)OC1COC(n2c(=S)n(-c3ccccc3)c(=N)c3ccccc32)C(OC(C)=O)C1OC(C)=O` (stereo not given) the T/C (endpoint: mean survival time, dose: 12.5 mg/kg/injection, schedule: Q01DX005 (ip), vehicle: distilled water + Tween-80) was 90 % of control, the T/C (endpoint: mean survival time, dose: 25.0 mg/kg/injection, schedule: Q01DX005 (ip), vehicle: distilled water + Tween-80) was 87 % of control and the T/C (endpoint: mean survival time, dose: 50.0 mg/kg/injection, schedule: Q01DX005 (ip), vehicle: distilled water + Tween-80) was 93 % of control. The T/C (endpoint: mean survival time, dose: 200.0 mg/kg/injection, schedule: Q01DX005 (ip), vehicle: distilled water + Tween-80) was 92 % of control.
`CC(C)OC(=O)Nc1ccccc1F` was tested, and the T/C (endpoint: mean survival time, dose: 100.0 mg/kg/injection, schedule: Q01DX009 (ip), vehicle: other) was 97 % of control, the T/C (endpoint: mean survival time, dose: 200.0 mg/kg/injection, schedule: Q01DX009 (ip), vehicle: other) was 96 % of control and the T/C (endpoint: mean survival time, dose: 400.0 mg/kg/injection, schedule: Q01DX009 (ip), vehicle: other) was 94 % of control.
`Cc1ccc(-c2[nH]c(=S)[nH]c(=O)c2CCO)cc1` was tested, and the T/C [6] was 91 % of control, the T/C [7] was 97 % of control and the T/C [8] was 93 % of control.
`COC1OC(CCl)C(Cl)C(OC)C1OC` (stereo not given) was tested, and the T/C [9] was 96 % of control, the T/C [10] was 91 % of control and the T/C (endpoint: mean survival time, dose: 400.0 mg/kg/injection, schedule: Q01DX001 (ip), vehicle: saline with Tween-80) was 87 % of control.
With `O=C(Nc1cc(Cl)ccc1Cl)c1ccc(C(=O)Nc2cc(Cl)ccc2Cl)cc1` the T/C [4] was 94 % of control, the T/C [6] was 92 % of control and the T/C [5] was 95 % of control. The T/C [7] was 96 % of control, the T/C [11] was 94 % of control and the T/C [8] was 88 % of control.
With `NC1(CO)COC(c2ccccc2)OC1` (stereo not given) the T/C [1] was 93 % of control, the T/C [2] was 96 % of control and the T/C [12] was 96 % of control.
In the case of `CCOC(=O)C1(C2=NC(C)(C)CC(C)O2)CCCCC1` (stereo not given), the T/C (endpoint: mean survival time, dose: 100.0 mg/kg/injection, schedule: Q04DX003 (ip), vehicle: acetone) is reported as 96 % of control, the T/C (endpoint: mean survival time, dose: 200.0 mg/kg/injection, schedule: Q04DX003 (ip), vehicle: acetone) is reported as 90 % of control and the T/C (endpoint: mean survival time, dose: 400.0 mg/kg/injection, schedule: Q04DX003 (ip), vehicle: acetone) is reported as 105 % of control.
`COc1ccc(CCNC(=S)NC(=O)c2cc(OC)c(OC)c(OC)c2)cc1OC` was tested, and the T/C [13] was 87 % of control, the T/C [14] was 97 % of control and the T/C [15] was 102 % of control.
For `CC(CO)CCC1OC2CC3C4CCC5CC(O)CCC5(C)C4CCC3(C)C2C1C` (stereo not given), the T/C [9] was 95 % of control and the T/C [10] was 94 % of control.
`CC(=O)N1NC2C(=O)N(C3CCCCC3)CC2C1c1ccccc1` (stereo not given) was tested, and the T/C [4] was 93 % of control, the T/C [5] was 100 % of control and the T/C [11] was 93 % of control.
`C=C(CCCCCCCCCCCCCCCC)C(=O)O` was tested, and the T/C (endpoint: mean survival time, dose: 25.0 mg/kg/injection, schedule: Q04DX002 (ip), vehicle: saline with Tween-80) was 90 % of control, the T/C (endpoint: mean survival time, dose: 50.0 mg/kg/injection, schedule: Q04DX002 (ip), vehicle: saline with Tween-80) was 87 % of control and the T/C [13] was 94 % of control.
With `Cc1ccc(NC(=O)c2ccccc2Cl)cc1` the T/C [4] was 95 % of control, the T/C [6] was 95 % of control and the T/C [5] was 92 % of control. The T/C [7] was 96 % of control, the T/C [11] was 94 % of control and the T/C [8] was 93 % of control.
In the case of `NC(Cc1cc([N+](=O)[O-])ccc1CN(CCCl)CCCl)C(=O)O` (stereo not given), the T/C (endpoint: mean survival time, dose: 0.25 mg/kg/injection, schedule: Q04DX003 (ip), vehicle: Klucel (hydroxypropylcellulose) (HPC)) is reported as 109 % of control, the T/C (endpoint: mean survival time, dose: 0.5 mg/kg/injection, schedule: Q04DX003 (ip), vehicle: Klucel (hydroxypropylcellulose) (HPC)) is reported as 111 % of control and the T/C (endpoint: mean survival time, dose: 0.75 mg/kg/injection, schedule: Q01DX001 (ip), vehicle: Klucel (hydroxypropylcellulose) (HPC)) is reported as 103 % of control. The T/C (endpoint: mean survival time, dose: 1.0 mg/kg/injection, schedule: Q04DX003 (ip), vehicle: Klucel (hydroxypropylcellulose) (HPC)) was 115 % of control, the T/C (endpoint: mean survival time, dose: 1.5 mg/kg/injection, schedule: Q01DX001 (ip), vehicle: Klucel (hydroxypropylcellulose) (HPC)) was 114 % of control and the T/C (endpoint: mean survival time, dose: 3.0 mg/kg/injection, schedule: Q01DX001 (ip), vehicle: Klucel (hydroxypropylcellulose) (HPC)) was 123 % of control. The T/C (endpoint: mean survival time, dose: 4.0 mg/kg/injection, schedule: Q01DX009 (ip), vehicle: Klucel (hydroxypropylcellulose) (HPC)) was 158 % of control, the T/C (endpoint: mean survival time, dose: 8.0 mg/kg/injection, schedule: Q01DX009 (ip), vehicle: Klucel (hydroxypropylcellulose) (HPC)) was 123 % of control and the T/C (endpoint: median survival time, dose: 0.75 mg/kg/injection, schedule: Q01DX001 (ip), vehicle: Klucel (hydroxypropylcellulose) (HPC)) was 115 % of control. The T/C (endpoint: median survival time, dose: 1.5 mg/kg/injection, schedule: Q01DX001 (ip), vehicle: Klucel (hydroxypropylcellulose) (HPC)) was 111 % of control, the T/C (endpoint: median survival time, dose: 1.88 mg/kg/injection, schedule: Q04DX003 (ip), vehicle: Klucel (hydroxypropylcellulose) (HPC)) was 362 % of control and the T/C (endpoint: median survival time, dose: 3.0 mg/kg/injection, schedule: Q01DX001 (ip), vehicle: Klucel (hydroxypropylcellulose) (HPC)) was 119 % of control. The T/C (endpoint: median survival time, dose: 3.12 mg/kg/injection, schedule: Q01DX001 (ip), vehicle: Klucel (hydroxypropylcellulose) (HPC)) was 362 % of control, the T/C (endpoint: median survival time, dose: 6.25 mg/kg/injection, schedule: Q01DX001 (ip), vehicle: Klucel (hydroxypropylcellulose) (HPC)) was 114 % of control and the T/C (endpoint: median survival time, dose: 12.5 mg/kg/injection, schedule: Q01DX001 (ip), vehicle: Klucel (hydroxypropylcellulose) (HPC)) was 124 % of control. The T/C (endpoint: median survival time, dose: 25.0 mg/kg/injection, schedule: Q01DX001 (ip), vehicle: Klucel (hydroxypropylcellulose) (HPC)) was 121 % of control.
`N#CC1C(C#N)C1C#N` (stereo not given) was tested, and the T/C [9] was 98 % of control and the T/C [10] was 98 % of control.
For `O=C1C(O)=Cc2coc(=O)c3ccc(-c4ccccc4)c1c23`, the T/C [9] was 91 % of control.
`CN1C(=O)CN(CCN2CC(=O)N(c3ccccc3)C2=S)C1=S` was tested, and the T/C [3] was 93 % of control, the T/C [4] was 93 % of control and the T/C [5] was 89 % of control.
For `c1ccc(OCCC[P+](c2ccccc2)(c2ccccc2)c2ccccc2)cc1`, the T/C (endpoint: mean survival time, dose: 10.0 mg/kg/injection, schedule: Q01DX009 (ip), vehicle: saline) was 105 % of control, the T/C (endpoint: mean survival time, dose: 20.0 mg/kg/injection, schedule: Q01DX009 (ip), vehicle: saline) was 95 % of control and the T/C (endpoint: mean survival time, dose: 25.0 mg/kg/injection, schedule: Q01DX009 (ip), vehicle: saline with Tween-80) was 95 % of control. For the same molecule, the T/C [16] was 101 % of control, the T/C [3] was 113 % of control and the T/C [17] was 92 % of control. For the same molecule, the T/C [4] was 111 % of control and the T/C [6] was 92 % of control.
In the case of `OC1(C2(O)c3ccccc3Oc3ccccc32)c2ccccc2Oc2ccccc21`, the T/C [12] is reported as 99 % of control and the T/C (endpoint: mean survival time, dose: 200.0 mg/kg/injection, schedule: Q01DX009 (ip), vehicle: saline) is reported as 97 % of control.
With `CCNCc1ccc(OC)cc1` the T/C [16] was 106 % of control, the T/C [17] was 104 % of control and the T/C [6] was 93 % of control.
`CCCC(C)C1C(=O)N(C)C(=O)N(C)C1=O` (stereo not given) was tested, and the T/C (endpoint: mean survival time, dose: 75.0 mg/kg/injection, schedule: Q01DX001 (ip), vehicle: saline) was 104 % of control, the T/C (endpoint: mean survival time, dose: 150.0 mg/kg/injection, schedule: Q01DX001 (ip), vehicle: saline) was 103 % of control and the T/C (endpoint: mean survival time, dose: 300.0 mg/kg/injection, schedule: Q01DX001 (ip), vehicle: saline) was 98 % of control.
In the case of `CCOP(=[Se])(OCC)[Se][Se][Se]P(=[Se])(OCC)OCC`, the T/C (endpoint: mean survival time, dose: 100.0 mg/kg/injection, schedule: Q01DX001 (ip), vehicle: saline) is reported as 108 % of control.
`Brc1ccc(N=C=C(c2ccccc2)c2ccccc2)cc1` was tested, and the T/C [3] was 98 % of control, the T/C [4] was 96 % of control and the T/C [6] was 92 % of control. For the same molecule, the T/C [5] was 102 % of control and the T/C [7] was 101 % of control.
For `COc1cccc2c1[C@H]1CO[C@H]3C4C[C@H](C(=O)O)C([C@@H](C2)N13)N4C` (stereo not given in full), the T/C (endpoint: median survival time, dose: 0.31 mg/kg/injection, schedule: Q01DX005 (ip), vehicle: water) was 90 % of control, the T/C (endpoint: median survival time, dose: 0.62 mg/kg/injection, schedule: Q01DX005 (ip), vehicle: water) was 101 % of control and the T/C (endpoint: median survival time, dose: 1.25 mg/kg/injection, schedule: Q01DX005 (ip), vehicle: water) was 102 % of control. For the same molecule, the T/C (endpoint: median survival time, dose: 2.5 mg/kg/injection, schedule: Q01DX005 (ip), vehicle: water) was 112 % of control and the T/C (endpoint: median survival time, dose: 5.0 mg/kg/injection, schedule: Q01DX005 (ip), vehicle: water) was 121 % of control.
In the case of `COc1ccc(NC(=O)Oc2c(C)cccc2C)cc1`, the T/C [13] is reported as 97 % of control, the T/C [14] is reported as 97 % of control and the T/C [15] is reported as 101 % of control.
